From patent publication US11827628B2, “Compositions and methods for inhibition of the JAK pathway” (Rigel Pharmaceuticals, Inc., priority 2005, dated 2023)
Structures can show the parent of a compound that is named as a salt.

Test system: Primary human T-cells
Assay: Primary Human T-Cell Proliferation Assay Stimulated with IL-2 (CellTiter-Glo)
Type: cell-based
Settings: Homo sapiens, T-cell, primary human T-cells stimulated with IL-2, proliferation; read-out: IC50, Example 42
Summary of the method: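 IC50 derived from CellTiter-Glo ATP signal after 72 hours of IL-2-driven proliferation at 37° C. Cells: primary human T-cells from blood, stimulated beforehand 3-4 days on anti-CD3/anti-CD28 with IL-2, then rested from IL-2 before compound exposure in duplicate; IL-2-free wells served as unstimulated control.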

SMILES | IC50
COc1ccc(CN2C(=O)C(C)Sc3ccc(Nc4nc(Nc5ccc(S(N)(=O)=O)cc5)ncc4F)cc32)cc1 (racemic) [Compound V-10, (R/S)-N2-(4-Aminosulphonylphenyl)-5-fluoro-N4-[2-methyl-3-oxo-4-(4-methoxybenzyl)-benzo[1,4]thiazin-6-yl]-2,4-pyrimidinediamine] | 8270 nM
N#CCN1C(=O)COc2ccc(Nc3nc(Nc4ccc(S(N)(=O)=O)cc4)ncc3F)cc21 [Compound V-6, N2-(4-Aminosulphonylphenyl)-5-fluoro-N4-(3-oxo-4-cyanomethyl-benz[1,4]oxazin-6-yl]-2,4-pyrimidinediamine] | 70.8 nM
N#CCN1C(=O)COc2ccc(Nc3nc(Nc4cccc(S(N)(=O)=O)c4)ncc3F)cc21 [Compound V-7, N2-(3-Aminosulphonylphenyl)-5-fluoro-N4-(3-oxo-4-cyanomethyl-benz[1,4]oxazin-6-yl]-2,4-pyrimidinediamine] | 127 nM
Cc1ccc(Nc2ncc(F)c(Nc3ccc4c(c3)N(CC#N)C(=O)CO4)n2)cc1S(N)(=O)=O [Compound V-8, N2-(3-Aminosulphonyl-4-methylphenyl)-5-fluoro-N4-[3-oxo-4-cyanomethyl-benz[1,4]oxazin-6-yl]-2,4-pyrimidinediamine] | 225 nM
N#CCN1C(=O)CSc2ccc(Nc3nc(Nc4ccc(S(N)(=O)=O)cc4)ncc3F)cc21 [Compound V-11, N2-(4-Aminosulphonylphenyl)-5-fluoro-N4-(3-oxo-4-cyanomethyl-benzo[1,4]thiazin-6-yl)-2,4-pyrimidinediamine] | 795 nM
N#CCN1C(=O)CSc2ccc(Nc3nc(Nc4cccc(S(N)(=O)=O)c4)ncc3F)cc21 [Compound V-12, N2-(3-Aminosulphonylphenyl)-5-fluoro-N4-(3-oxo-4-cyanomethyl-benzo[1,4]thiazin-6-yl)-2,4-pyrimidinediamine] | 957 nM
Cc1ccc(Nc2ncc(F)c(Nc3ccc4c(c3)N(CC#N)C(=O)CS4)n2)cc1S(N)(=O)=O [Compound V-13, N2-(3-Aminosulphonyl4-methylphenyl)-5-fluoro-N4-(3-oxo-4-cyanomethyl-benzo[1,4]thiazin-6-yl)-2,4-pyrimidinediamine] | 468 nM
NS(=O)(=O)c1ccc(Nc2ncc(F)c(NCCc3ccc(-n4ccnc4)cc3)n2)cc1 [III-90, N2-(4-Aminosulfonylphenyl)-5-fluoro-N4-[4-(1-imidazolyl)phenethyl]-2,4-pyrimidinediamine] | 468 nM
NS(=O)(=O)c1cccc(Nc2ncc(F)c(Nc3ccc(Cc4ccncc4)cc3)n2)c1 [III-128, N2-(3-Aminosulfonylphenyl)-5-fluoro-N4-[4-(4-pyridylmethyl)phenyl]-2,4-pyrimidinediamine p-Toluenesulfonic Acid Salt] | 139 nM
NS(=O)(=O)c1cccc(Nc2ncc(F)c(Nc3cccc(-c4cnco4)c3)n2)c1 [IV-1, N2-(3-Aminosulfonylphenyl)-5-fluoro-N4-[3-(1,3-oxazol-5-yl)phenyl]-2,4-pyrimidinediamine] | 287 nM
Cc1ccc(Nc2ncc(F)c(Nc3cccc(-c4cnco4)c3)n2)cc1S(N)(=O)=O [IV-2, N2-(3-Aminosulfonyl-4-methylphenyl)-5-fluoro-N4-[3-(1,3-oxazol-5-yl)phenyl]-2,4-pyrimidinediamine] | 362 nM
NS(=O)(=O)c1cccc(Nc2ncc(F)c(Nc3ccc(-c4cnco4)cc3)n2)c1 [IV-5, N2-(3-Aminosulfonylphenyl)-5-fluoro-N4-[4-(1,3-oxazol-5-yl)phenyl]-2,4-pyrimidinediamine] | 116 nM
Cc1ccc(Nc2ncc(F)c(Nc3ccc(-c4cnco4)cc3)n2)cc1S(N)(=O)=O [IV-6, N2-(3-Aminosulfonyl-4-methylphenyl)-5-fluoro-N4-[4-(1,3-oxazol-5-yl)phenyl]-2,4-pyrimidinediamine] | 132 nM
C#CCn1ccc2cc(Nc3nc(Nc4ccc(C)c(S(N)(=O)=O)c4)ncc3F)ccc21 [IX-1, N2-(3-Aminosulfonyl-4-methylphenyl)-5-fluoro-N4-[1-(propyn-3-yl)indol-5-yl]-2,4-pyrimidinediamine] | 581 nM
C#CCn1ccc2cc(Nc3nc(Nc4cccc(S(N)(=O)=O)c4)ncc3F)ccc21 [IX-2, N2-(3-Aminosulfonylphenyl)-5-fluoro-N4-[1-(propyn-3-yl)indol-5-yl]-2,4-pyrimidinediamine] | 282 nM
Cc1ccc(Nc2ncc(F)c(Nc3ccc4c(CC#N)c[nH]c4c3)n2)cc1S(N)(=O)=O [IX-11, N2-(3-Aminosulfonyl-4-methylphenyl)-N4-(3-cyanomethyl-1H-indol-6-yl)-5-fluoro-2,4-pyrimidinediamine] | 215 nM
N#CCc1c[nH]c2cc(Nc3nc(Nc4cccc(S(N)(=O)=O)c4)ncc3F)ccc12 [IX-12, N2-(3-Aminosulfonylphenyl)-N4-(3-cyanomethyl-1H-indol-6-yl)-5-fluoro-2,4-pyrimidinediamine] | 117 nM
N#CCc1c[nH]c2ccc(Nc3nc(Nc4cccc(S(N)(=O)=O)c4)ncc3F)cc12 [IX-13, N2-(3-Aminosulfonylphenyl)-N4-(3-cyanomethyl-1H-indol-5-yl)-5-fluoro-2,4-pyrimidinediamine] | 430 nM

SMILES | IC50
Cc1ccc(Nc2ncc(F)c(Nc3ccc4[nH]cc(CC#N)c4c3)n2)cc1S(N)(=O)=O [IX-14, N2-(3-Aminosulfonyl-4-methylphenyl)-N4-(3-cyanomethyl-1H-indol-5-yl)-5-fluoro-2,4-pyrimidinediamine] | 656 nM
N#CCc1c[nH]c2c(Nc3nc(Nc4cccc(S(N)(=O)=O)c4)ncc3F)cccc12 [IX-15, N2-(3-Aminosulfonylphenyl)-N4-(3-cyanomethyl-1H-indol-7-yl)-5-fluoro-2,4-pyrimidinediamine] | 157 nM
Cc1ccc(Nc2ncc(F)c(Nc3cccc4c(CC#N)c[nH]c34)n2)cc1S(N)(=O)=O [IX-16, N2-(3-Aminosulfonyl-4-methylphenyl)-N4-(3-cyanomethyl-1H-indol-7-yl)-5-fluoro-2,4-pyrimidinediamine] | 223 nM
NS(=O)(=O)c1cccc(Nc2ncc(F)c(Nc3ccc(C(=O)N4CCSCC4)cc3)n2)c1 [IX-34, N2-(3-Aminosulfonylphenyl)-5-fluoro-N4-[4-(4-thiomorpholinyl)carbonylphenyl]-2,4-pyrimidinediamine] | 576 nM
Cc1ccc(Nc2ncc(F)c(Nc3ccc(C(=O)N4CCSCC4)cc3)n2)cc1S(N)(=O)=O [IX-35, N2-(3-Aminosulfonyl-4-methylphenyl)-5-fluoro-N4-[4-(4-thiomorpholinyl)carbonylphenyl]-2,4-pyrimidinediamine] | 866 nM
COc1cc(Nc2nc(Nc3ccc(C)c(S(N)(=O)=O)c3)ncc2F)ccc1Cl [VI-5, N2-(3-Aminosulfonyl-4-methylphenyl)-N4-(4-chloro-3-methoxyphenyl)-5-fluoro-2,4-pyrimidinediamine] | 718 nM
Cc1ccc(Nc2ncc(F)c(Nc3ccc(Cl)c(Cl)c3)n2)cc1S(N)(=O)=O [VI-6, N2-(3-Aminosulfonyl-4-methylphenyl)-N4-(3,4-dichlorophenyl)-5-fluoro-2,4-pyrimidinediamine] | 1450 nM
COc1cc(Nc2nc(Nc3ccc(Cl)c(S(N)(=O)=O)c3)ncc2F)ccc1Cl [VI-11, N2-(3-Aminosulfonyl-4-chlorophenyl)-N4-(4-chloro-3-methoxyphenyl)-5-fluoro-2,4-pyrimidinediamine] | 4620 nM
COc1ccc(Nc2nc(Nc3cc(Cl)c(C)c(S(N)(=O)=O)c3)ncc2F)cc1Cl [VI-13, N2-(3-Aminosulfonyl-5-chloro-4-methylphenyl)-N4-(3-chloro-4-methoxyphenyl)-5-fluoro-2,4-pyrimidinediamine] | 1350 nM
COc1ccc(Nc2nc(Nc3cc(C)c(F)c(S(N)(=O)=O)c3)ncc2F)cc1Cl [VI-15, N2-(3-Aminosulfonyl-4-fluoro-5-methylphenyl)-N4-(3-chloro-4-methoxyphenyl)-5-fluoro-2,4-pyrimidinediamine] | 469 nM
COc1ccc(Nc2nc(Nc3cc(C)c(Cl)c(S(N)(=O)=O)c3)ncc2F)cc1Cl [VI-17, N2-(3-Aminosulfonyl-4-chloro-5-methylphenyl)-N4-(3-chloro-4-methoxyphenyl)-5-fluoro-2,4-pyrimidinediamine] | 244 nM
Cc1cc(Nc2ncc(F)c(Nc3ccc(OC(F)(F)F)c(Cl)c3)n2)cc(S(N)(=O)=O)c1Cl [VI-18, N2-(3-Aminosulfonyl-4-chloro-5-methylphenyl)-N4-(3-chloro-4-trifluoromethoxyphenyl)-5-fluoro-2,4-pyrimidinediamine] | 4370 nM
COc1ccc(Nc2nc(Nc3cccc(S(N)(=O)=O)c3)ncc2Br)cc1Cl [VI-26, N2-(3-aminosulfonylphenyl)-5-bromo-N4-(3-chloro-4-methoxyphenyl)-2,4-pyrimidinediamine] | 28.9 nM
COc1c(C)cc(Nc2ncc(F)c(Nc3ccc(C(C)(C)C)cc3)n2)cc1S(N)(=O)=O [VI-37, N2-(3-Aminosulfonyl-4-methoxy-5-methylphenyl)-N4-(4-tert-butylphenyl)-5-fluoro-2,4-pyrimidinediamine] | 1080 nM
COc1ccc(Nc2nc(Nc3ccc(C(C)C)c(S(N)(=O)=O)c3)ncc2F)cc1Cl [VI-45, N2-(3-Aminosulfonyl-4-iso-propylphenyl)-N4-(3-chloro-4-methoxy-phenyl)-5-fluoro-2,4-pyrimidinediamine] | 1330 nM
CNC(=O)OCc1cccc(Nc2nc(Nc3ccc(C)c(S(N)(=O)=O)c3)ncc2F)c1 [VI-49, N2-(3-Aminosulfonyl-4-methylphenyl)-5-fluoro-N4-[3-(methylaminocarbonyloxymethyl)phenyl]-2,4-pyrimidinediamine] | 1260 nM
Cc1ccc(Nc2ncc(F)c(Nc3ccc(C(F)(F)F)cc3)n2)cc1S(N)(=O)=O [VI-50, N2-(3-Aminosulfonyl-4-methylphenyl)-5-fluoro-N4-(4-trifluoromethylphenyl)-2,4-pyrimidinediamine] | 944 nM
NS(=O)(=O)c1cccc(Nc2ncc(F)c(Nc3ccc(C(F)(F)F)cc3)n2)c1 [VI-51, N2-(3-Aminosulfonylphenyl)-5-fluoro-N4-(4-trifluoromethylphenyl)-2,4-pyrimidinediamine] | 547 nM
